Data as given in patent US11077090B2, “Compounds and compositions and uses thereof” (Sunovion Pharmaceuticals Inc., priority 2016, dated 2021).

system: compound-treated mice; experiment: Neuropharmacological assay (SmartCube): behavioral activity signature and minimal effective dose; type: in vivo; details: Mus musculus, ip, MED = dose having 50% or more total activity, read-out: Potency: minimal effective dose (MED), binned
Procedure, shortened: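 Video-recorded behavior is compared algorithmically against a reference-compound database, yielding class probabilities (best dose reported). Compounds given i.p. in NMP/PEG/propylene glycol 15 min pre-test at 3 doses; potency as MED, the dose (mpk, range usually 0.3–30) reaching ≥50% total activity.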

Structure (SMILES) | minimal effective dose
C[C@@H]1OC[C@@H](N)c2cc(Cl)ccc21.Cl [Example 204] | 3 to 10 mg/kg
C[C@H]1OC[C@@H](N)c2cc(F)ccc21.Cl [Example 205] | 3 to 10 mg/kg
C[C@@H]1OC[C@@H](N)c2cc(F)ccc21.Cl [Example 206] | 3 to 10 mg/kg
CC[C@H]1OCc2cccc(C)c2[C@@H]1N.Cl [Example 207] | 3 to 10 mg/kg
CC[C@@H]1OCc2cccc(C)c2[C@@H]1N.Cl [Example 208] | 3 to 10 mg/kg
Cc1ccc2c(c1)[C@H](N)[C@@H](C(C)C)OC2 [Example 210] | 3 to 10 mg/kg
Cc1ccc2c(c1)[C@H](N)[C@H](C(C)C)OC2 [Example 211] | 3 to 10 mg/kg
C[C@H]1OCc2c(F)cccc2[C@@H]1N.Cl [Example 214] | 3 to 10 mg/kg
C[C@@H]1OCc2c(F)cccc2[C@@H]1N.Cl [Example 215] | 3 to 10 mg/kg
C[C@H]1OCc2cccc(F)c2[C@@H]1N.Cl [Example 216] | 3 to 10 mg/kg
C[C@@H]1OCc2cccc(F)c2[C@@H]1N.Cl [Example 217] | 10 to 30 mg/kg
CCc1ccc2c(c1)[C@H](N)[C@H](C)OC2.Cl [Example 219] | 3 to 10 mg/kg
CCc1ccc2c(c1)[C@H](N)[C@@H](C)OC2.Cl [Example 220] | 3 to 10 mg/kg
Cc1ccc2c(c1)[C@@H](C)OC[C@H]2N [Example 221] | 3 to 10 mg/kg
Cc1ccc2c(c1)[C@H](C)OC[C@H]2N [Example 222] | 3 to 10 mg/kg

same assay, conditions: i.p. 15 min before test, most efficacious dose(s)

Structure (SMILES) | AD: ADHD (probability of activity signature) | AG: analgesic (probability of activity signature) | AX: anxiolytic (probability of activity signature) | CE: cognitive enhancer (probability of activity signature) | DP: anti-depressant (probability of activity signature) | MS: mood stabilizer (probability of activity signature) | PS: anti-psychotic (probability of activity signature) | SD: sedative hypnotic (probability of activity signature) | UN: uncharacterized CNS activity (probability of activity signature)
C[C@@H]1OC[C@@H](N)c2cc(Cl)ccc21.Cl [Example 204] | + (LOQ ≤ + <5%) | + (LOQ ≤ + <5%) | ++ (5% ≤ ++ <25%) | ++ (5% ≤ ++ <25%) | + (LOQ ≤ + <5%) | + (LOQ ≤ + <5%) | ++ (5% ≤ ++ <25%) | ++ (5% ≤ ++ <25%) | ++++ (50% ≤ ++++)
C[C@H]1OC[C@@H](N)c2cc(F)ccc21.Cl [Example 205] | + (LOQ ≤ + <5%) | + (LOQ ≤ + <5%) | +++ (25% ≤ +++ <50%) | ++ (5% ≤ ++ <25%) | ++ (5% ≤ ++ <25%) | + (LOQ ≤ + <5%) | ++ (5% ≤ ++ <25%) | ++ (5% ≤ ++ <25%) | +++ (25% ≤ +++ <50%)
C[C@@H]1OC[C@@H](N)c2cc(F)ccc21.Cl [Example 206] | + (LOQ ≤ + <5%) | ++ (5% ≤ ++ <25%) | ++++ (50% ≤ ++++) | ++ (5% ≤ ++ <25%) | ++ (5% ≤ ++ <25%) | + (LOQ ≤ + <5%) | ++ (5% ≤ ++ <25%) | + (LOQ ≤ + <5%) | +++ (25% ≤ +++ <50%)
CC[C@H]1OCc2cccc(C)c2[C@@H]1N.Cl [Example 207] | + (LOQ ≤ + <5%) | ++ (5% ≤ ++ <25%) | ++ (5% ≤ ++ <25%) | ++ (5% ≤ ++ <25%) | ++ (5% ≤ ++ <25%) | + (LOQ ≤ + <5%) | ++ (5% ≤ ++ <25%) | + (LOQ ≤ + <5%) | ++++ (50% ≤ ++++)
CC[C@@H]1OCc2cccc(C)c2[C@@H]1N.Cl [Example 208] | + (LOQ ≤ + <5%) | + (LOQ ≤ + <5%) | +++ (25% ≤ +++ <50%) | ++ (5% ≤ ++ <25%) | ++ (5% ≤ ++ <25%) | ++ (5% ≤ ++ <25%) | ++ (5% ≤ ++ <25%) | + (LOQ ≤ + <5%) | +++ (25% ≤ +++ <50%)
Cc1ccc2c(c1)[C@H](N)[C@@H](C(C)C)OC2 [Example 210] | + (LOQ ≤ + <5%) | ++ (5% ≤ ++ <25%) | ++ (5% ≤ ++ <25%) | ++ (5% ≤ ++ <25%) | + (LOQ ≤ + <5%) | + (LOQ ≤ + <5%) | + (LOQ ≤ + <5%) | + (LOQ ≤ + <5%) | ++++ (50% ≤ ++++)
Cc1ccc2c(c1)[C@H](N)[C@H](C(C)C)OC2 [Example 211] | + (LOQ ≤ + <5%) | + (LOQ ≤ + <5%) | ++ (5% ≤ ++ <25%) | + (LOQ ≤ + <5%) | ++ (5% ≤ ++ <25%) | + (LOQ ≤ + <5%) | ++ (5% ≤ ++ <25%) | +++ (25% ≤ +++ <50%) | ++++ (50% ≤ ++++)
C[C@H]1OCc2c(F)cccc2[C@@H]1N.Cl [Example 214] | ++ (5% ≤ ++ <25%) | ++ (5% ≤ ++ <25%) | ++ (5% ≤ ++ <25%) | ++ (5% ≤ ++ <25%) | ++ (5% ≤ ++ <25%) | + (LOQ ≤ + <5%) | ++ (5% ≤ ++ <25%) | ++ (5% ≤ ++ <25%) | ++++ (50% ≤ ++++)
C[C@@H]1OCc2c(F)cccc2[C@@H]1N.Cl [Example 215] | + (LOQ ≤ + <5%) | ++ (5% ≤ ++ <25%) | +++ (25% ≤ +++ <50%) | ++ (5% ≤ ++ <25%) | ++ (5% ≤ ++ <25%) | + (LOQ ≤ + <5%) | ++ (5% ≤ ++ <25%) | ++ (5% ≤ ++ <25%) | ++++ (50% ≤ ++++)
C[C@H]1OCc2cccc(F)c2[C@@H]1N.Cl [Example 216] | + (LOQ ≤ + <5%) | ++ (5% ≤ ++ <25%) | ++ (5% ≤ ++ <25%) | + (LOQ ≤ + <5%) | ++ (5% ≤ ++ <25%) | + (LOQ ≤ + <5%) | + (LOQ ≤ + <5%) | + (LOQ ≤ + <5%) | ++++ (50% ≤ ++++)
C[C@@H]1OCc2cccc(F)c2[C@@H]1N.Cl [Example 217] | + (LOQ ≤ + <5%) | + (LOQ ≤ + <5%) | +++ (25% ≤ +++ <50%) | ++ (5% ≤ ++ <25%) | ++ (5% ≤ ++ <25%) | + (LOQ ≤ + <5%) | ++ (5% ≤ ++ <25%) | + (LOQ ≤ + <5%) | ++++ (50% ≤ ++++)
CCc1ccc2c(c1)[C@H](N)[C@H](C)OC2.Cl [Example 219] | + (LOQ ≤ + <5%) | ++ (5% ≤ ++ <25%) | ++ (5% ≤ ++ <25%) | ++ (5% ≤ ++ <25%) | + (LOQ ≤ + <5%) | + (LOQ ≤ + <5%) | + (LOQ ≤ + <5%) | + (LOQ ≤ + <5%) | ++++ (50% ≤ ++++)
CCc1ccc2c(c1)[C@H](N)[C@@H](C)OC2.Cl [Example 220] | + (LOQ ≤ + <5%) | ++ (5% ≤ ++ <25%) | ++++ (50% ≤ ++++) | ++ (5% ≤ ++ <25%) | + (LOQ ≤ + <5%) | + (LOQ ≤ + <5%) | + (LOQ ≤ + <5%) | + (LOQ ≤ + <5%) | ++++ (50% ≤ ++++)
Cc1ccc2c(c1)[C@@H](C)OC[C@H]2N [Example 221] | + (LOQ ≤ + <5%) | + (LOQ ≤ + <5%) | ++ (5% ≤ ++ <25%) | + (LOQ ≤ + <5%) | ++ (5% ≤ ++ <25%) | + (LOQ ≤ + <5%) | ++ (5% ≤ ++ <25%) | + (LOQ ≤ + <5%) | ++++ (50% ≤ ++++)
Cc1ccc2c(c1)[C@H](C)OC[C@H]2N [Example 222] | + (LOQ ≤ + <5%) | + (LOQ ≤ + <5%) | ++ (5% ≤ ++ <25%) | + (LOQ ≤ + <5%) | + (LOQ ≤ + <5%) | + (LOQ ≤ + <5%) | + (LOQ ≤ + <5%) | + (LOQ ≤ + <5%) | ++++ (50% ≤ ++++)
